Laboratory results taken from PMC8329197, “Compounds targeting OSBPL7 increase ABCA1-dependent cholesterol efflux preserving kidney function in two models of kidney disease” (Nature Communications, 2021).
Where “and” joins values, the source holds several entries; their conditions need not be identical. Equal values may be shown once.

Columns and labels:
[1] = biological target: human cannabinoid 1 receptor (hCB1-R) (Homo sapiens, UniProt P21554); test: Potency for binding to the CB1R in vitro (Ki); details: human CB1 receptor binding
Sequence of human cannabinoid 1 receptor (hCB1-R) (P21554 whole entry): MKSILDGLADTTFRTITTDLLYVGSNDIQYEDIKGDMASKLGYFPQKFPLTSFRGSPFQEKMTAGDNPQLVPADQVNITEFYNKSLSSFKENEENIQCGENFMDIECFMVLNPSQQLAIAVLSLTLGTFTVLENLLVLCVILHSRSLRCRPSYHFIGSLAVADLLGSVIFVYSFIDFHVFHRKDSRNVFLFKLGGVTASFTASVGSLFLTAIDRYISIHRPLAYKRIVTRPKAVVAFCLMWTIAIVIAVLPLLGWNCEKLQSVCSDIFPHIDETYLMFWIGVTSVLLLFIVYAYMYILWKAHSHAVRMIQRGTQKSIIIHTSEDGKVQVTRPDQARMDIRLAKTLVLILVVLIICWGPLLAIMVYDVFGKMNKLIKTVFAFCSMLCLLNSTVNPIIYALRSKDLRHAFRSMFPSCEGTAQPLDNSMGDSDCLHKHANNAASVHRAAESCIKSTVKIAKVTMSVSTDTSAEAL

[2] = tested on: Adriamycin (ADR)-induced nephropathy in Balb/c mice; test: ADR nephropathy: immunofluorescence of glomerular ABCA1 and WT1+ podocyte number; format: in vivo, mouse; details: for Glomerular ABCA1 mean fluorescence intensity, mean / Number of Podocytes (WT1+ cells in glomeruli), mean / Glomerular ABCA1 mean fluorescence intensity / Number of Podocytes (WT1+ cells in glomeruli): ADR; for Glomerular ABCA1 mean fluorescence intensity, mean / Number of Podocytes (WT1+ cells in glomeruli), mean: group mean; for Glomerular ABCA1 mean fluorescence intensity / Number of Podocytes (WT1+ cells in glomeruli): individual mice
Description: For the detection of ABCA1 expression, 4 μm paraffin kidney cortex sections were deparaffinized and rehydrated. Antigens were retrieved by boiling for 30 min in citrate buffer pH 6.0 (Target Retrieval Solution, Citrate pH 6, Sigma, USA). The sections were permeabilized for 30 min with 0.1% Triton X-100 in TBS. Tissue sections were incubated with 10% goat serum (cat # G9023, Millipore Sigma) and 1% BSA (cat # SP-5050-500, Vector, USA) in TBS-T for 1hr at room temperature to block any non-specific binding. Samples were then incubated overnight at 4 °C with Rat anti-ABCA1 (Novus, 1:200) and Rabbit anti-WT1 (Abcam, 1:200) antibodies in a humidified chamber. After washing extensively, samples were then incubated for 1 h at RT with fluorochrome-conjugated secondary antibodies (Invitrogen, 1:500). Antifade mounting media containing DAPI (Vectashield Plus) was added to the sections before being analyzed.
Images were acquired using a FluoView FV1000 Confocal Microscope (Olympus) with a ×63 oil objective lens in different planes using a Z-series pattern with a step size of 0.18 μm. During analysis, individual planes were deconvoluted and stacked to produce a maximum projected image using fluview software version 4.3b (Olympus). A minimum of 5 images was captured from 5 different fields per sample. Quantification of ABCA1 glomerular mean fluorescence intensity (MFI) was done using Fiji—ImageJ software.

PgP = PgP inhibition; format: in vitro ADME
Covalent Binding = format: in vitro ADME
[3] = Microsomal metabolism, human; format: in vitro ADME

Compound | Ki [1] [µM] | Glomerular ABCA1 mean fluorescence intensity, mean ([2]; 30mg/kg) | Number of Podocytes (WT1+ cells in glomeruli), mean ([2]; 30mg/kg) | Glomerular ABCA1 mean fluorescence intensity ([2]; 30mg/kg) | Number of Podocytes (WT1+ cells in glomeruli) ([2]; 30mg/kg) | Glomerular ABCA1 mean fluorescence intensity, mean ([2]; 100mg/kg) | Number of Podocytes (WT1+ cells in glomeruli), mean ([2]; 100mg/kg) | Glomerular ABCA1 mean fluorescence intensity ([2]; 100mg/kg) | Number of Podocytes (WT1+ cells in glomeruli) ([2]; 100mg/kg) | ADR-induced glomerular degeneration with podocyte loss and loss of ABCA1 expression ([2]; immunofluorescence of renal cortex sections) | PgP inhibition (PgP) | Covalent Binding (Covalent Binding) | Microsomes (MAB%) (r/h) [3] [%]
O=C(N[C@@H]1CCCC[C@H]1O)c1ccc(OCC(F)(F)F)c(-c2ccc(Cl)c(Cl)c2)n1 [Cpd A] | > 10 | – | – | – | – | – | – | – | – | – | – | – | –
O=C(N[C@@H]1CCCC[C@H]1O)c1cnc(OCC(F)(F)F)c(-c2ccc(Cl)c(Cl)c2)c1 [Cpd G] | – | 13.76 | 9.133 | 13.36 and 14.02 and 13.9 | 11 and 9.6 and 6.8 | 20.2467 | 14.8667 | 19.7 and 21.32 and 19.72 | 15.4 and 14.2 and 15 | prevented | Negative | No flag | 82
